Test results published in patent US9556135B2, “Amino-dihydrothiazine and amino-dioxido dihydrothiazine compounds as beta-secretase antagonists and methods of use” (Amgen Inc., priority 2012, dated 2017).
Where two headings read alike, the source gives them in different places. Values belong to the molecule of their own block, whether it stands above or below them.

Assays:
[1] = molecular target: Beta Secretase enzyme (BACE1) (Homo sapiens (Human), UniProt P56817); test: In vitro enzymatic BACE FRET assay; assay type: biochemical
Beta Secretase enzyme (BACE1), sequence (P56817 46-501): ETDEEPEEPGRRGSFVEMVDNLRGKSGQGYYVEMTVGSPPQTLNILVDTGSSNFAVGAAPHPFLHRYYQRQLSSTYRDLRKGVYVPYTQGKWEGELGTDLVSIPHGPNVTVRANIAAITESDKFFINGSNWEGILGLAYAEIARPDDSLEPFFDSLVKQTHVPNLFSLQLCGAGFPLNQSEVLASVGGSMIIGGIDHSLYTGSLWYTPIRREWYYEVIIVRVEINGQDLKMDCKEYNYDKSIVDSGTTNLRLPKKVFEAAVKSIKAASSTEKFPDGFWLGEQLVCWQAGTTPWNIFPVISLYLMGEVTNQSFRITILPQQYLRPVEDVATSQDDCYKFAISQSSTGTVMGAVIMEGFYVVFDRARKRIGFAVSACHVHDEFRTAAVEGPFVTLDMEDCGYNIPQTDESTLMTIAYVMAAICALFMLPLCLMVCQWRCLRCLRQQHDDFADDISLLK
Procedure: In Vitro Enzymatic BACE FRET (Fluorescence Resonance Energy Transfer) Assay (Enzyme Assay Data in the Example Tables I and II)
The assay buffer used in this screen is 0.05 M acetate, pH 4.2, 10% DMSO final, 100 uM genapol (which is a nonionic detergent, below its Critical Micelle Concentration). […] This assay is effectively started by the addition of FRET substrate (50 nM) and the combination is incubated for one hour. The FRET assay is terminated with by addition of Tris buffer, which raises the pH to neutrality, and the fluorescence is determined. The FRET substrate is a peptide with commercially available fluorophore and quencher, on opposite sides of the BACE cleavage site. Proteolytic cleavage of the FRET substrate releases quenching of fluorescence (excitation […] and […]).

[2] = system: Aβ40 in conditioned medium of cells stably expressing Amyloid Precursor Protein (APP); test: In vitro BACE cell-based assay (HEK cell assay), Aβ40 sandwich ELISA
Procedure: In Vitro BACE Cell-Based Assay
The cell-based assay measures inhibition or reduction of Aβ40 in conditioned medium of test compound treated cells expressing amyloid precursor protein.
Cells stably expressing Amyloid Precursor Protein (APP) were plated at a density of 40K cells/well in 96 well plates (Costar). The cells were cultivated for 24 hours at 37° C. and 5% CO2 in DMEM supplemented with 10% FBS. The test compounds were then added to cells in 10-point dose response concentrations with the starting concentration being either 100 μM or 10 μM. The compounds were diluted from stock solutions in DMSO and the final DMSO concentration of the test compounds on cells was 0.1%. After 24 h of incubation with the test compounds the supernatant conditioned media was collected and the Aβ 40 levels were determined using a sandwich ELISA. The IC50 of the compound was calculated from the percent of control or percent inhibition of Aβ 40 as a function of the concentration of the test compound.
The sandwich ELISA to detect Aβ 40 was performed in 96 well microtiter plates, which were pre-treated with goat anti-rabbit IgG (Pierce). The capture and detecting antibody pair that were used to detect Aβ 40 from cell supernatants were affinity purified pAb40 (Biosource) and biotinylated 6E10 (Signet Labs Inc.), respectively. The optimal concentration for the pAb40 antibody was 3 μg/ml in Superblock/TBS (Pierce) that was supplemented with 0.05% Tween 20 (Sigma).
Cellular supernatants were incubated with the capture antibody for 3 h at 4° C., followed by 3 wash steps in TBS-tween (0.05%). The detecting antibody incubation was for 2 h at 4° C., again followed by the wash steps as described previously. The final readout of the ELISA is Time-Resolved Fluorescence (counts per minute) using Delfia reagents Streptavidin-Europium and Enhancement solutions (Perkin Elmer) and the Victor 2 multilabel counter (Perkin Elmer).

Cathepsin D (Cat D) = Cathepsin D (Cat D) (Homo sapiens (Human), UniProt P07339); test: In vitro enzymatic Cathepsin D (Cat D) FRET assay; assay type: biochemical; details: read-out: CatD IC50
Cathepsin D (Cat D), sequence (P07339 65-412, species assumed): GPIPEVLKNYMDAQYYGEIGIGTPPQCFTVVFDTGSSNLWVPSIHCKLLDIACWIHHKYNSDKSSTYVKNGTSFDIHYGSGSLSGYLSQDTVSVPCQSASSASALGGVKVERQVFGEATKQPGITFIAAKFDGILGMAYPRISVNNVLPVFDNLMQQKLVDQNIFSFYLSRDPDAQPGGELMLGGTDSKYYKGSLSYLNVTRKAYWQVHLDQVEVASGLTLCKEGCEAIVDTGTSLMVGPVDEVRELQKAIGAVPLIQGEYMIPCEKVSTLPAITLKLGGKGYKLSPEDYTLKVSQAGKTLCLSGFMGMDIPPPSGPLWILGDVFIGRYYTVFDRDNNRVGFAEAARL
Procedure: In Vitro Enzymatic Cathepsin D (Cat D) FRET (Fluorescence Resonance Energy Transfer) Assay Recombinant Cat D was expressed in CHO cells. […] The Cat D enzyme (9 nM) is pre-incubated for one hour with inhibitors, typically in about 1 uL of DMSO according to a serial dilution, is added thereto. […] The FRET assay is terminated with by addition of Tris buffer, which raises the pH to neutrality, and the fluorescence is determined. The FRET substrate is a peptide with commercially available fluorophore and quencher, on opposite sides of the BACE cleavage site. The Cat D substrate peptide sequence is based on sequence #1 of Table 1 from Gulnik et al. […] Where available, the in-vitro Cat D FRET assay data for each of the Examples, conducted by the first procedure, is provided.

Abeta 40 = test: In vivo inhibition of beta-secretase: Abeta 40 reduction in CSF and brain of the rat; details: 10 mpk (unless otherwise noted), after 4 hrs
[3] = Homo sapiens, HEK293, average IC50, HEK cell assay
[4] = average IC50, enzyme assay (Table II)
[5] = average IC50, cell assay (Table II)

Molecule: CC1(C)C(N)=N[C@](C)(c2cc(Nc3ncnc4cc(C#N)cnc34)cnc2F)CS1(=O)=O [Example 384]
- IC50 ([2]; average IC50): 23.9 nM

Molecule: Cc1cc(C(F)F)cnc1C(=O)Nc1ccc(F)c([C@]2(C)CS(=O)(=O)[C@]3(C[C@@H](F)C3)C(N)=N2)c1 [Example 338, N-(3-((2S,4s,7R)-9-amino-2-fluoro-7-methyl-5,5-dioxido-5-thia-8-azaspiro[3.5]non-8-en-7-yl)-4-fluorophenyl)-5-(diffuoromethyl)-3-methyl-2-pyridinecarboxamide]
- IC50 [1, 4]: 2.94 nM
- IC50 [2, 5]: 10.8 nM
- IC50 (Cathepsin D (Cat D); Table II): 59000 nM

Molecule: CC1(C)C(N)=N[C@](C)(c2cc(NC(=O)c3cc4ccccc4cn3)ccc2F)CS1(=O)=O [Example 343]
- IC50 [2, 5]: 10.7 nM

Molecule: COc1cnc(C(=O)Nc2ccc(F)c([C@]34COC[C@H]3S(=O)(=O)C(C)(C)C(N)=N4)c2)c(C)c1 [Example 430, N-(3-((4aS,7aS)-3-amino-2,2-dimethyl-1,1-dioxido-7,7a-dihydro-2H-furo[3,4-13][1,4]thiazin-4a(5H)-yl)-4-fluorophenyl)-5-methoxy-3-methyl-2-pyridinecarboxamide]
- IC50 ([1]; average IC50, enzyme assay): 4.1 nM
- IC50 ([2]; average IC50, cell assay): 11.7 nM
- % reduction of rat CSF levels at 10 pmk (Abeta 40; rat CSF): 31%
- % reduction of rat brain levels at 10 mpk (Abeta 40; rat brain): 1%

Molecule: COc1cnc(C(=O)Nc2ccc(F)c([C@]3(C)CS(=O)(=O)[C@]4(C[C@@H](F)C4)C(N)=N3)c2)c(C)c1 [Example 463, N-(3-((2S,4s,7R)-9-amino-2-fluoro-7-methyl-5,5-dioxido-5-thia-8-azaspiro[3.5]non-8-en-7-yl)-4-fluorophenyl)-5-methoxy-3-methylpicolinamide]
- IC50 ([1]; average IC50, enzyme assay): 4.6 nM
- IC50 [2, 3]: 13.2 nM
- IC50 (Cathepsin D (Cat D); Cathepsin D FRET assay): 76500 nM

Molecule: COc1cnc(C(=O)Nc2ccc(F)c([C@@]3(C(F)(F)F)CS(=O)(=O)C(C)(C)C(N)=N3)c2)cn1 [Example 34, N-(3-((3R)-5-amino-6,6-dimethyl-1,1-dioxido-3-(trifluoromethyl)-3,6-dihydro-2H-1,4-thiazin-3-yl)-4-fluorophenyl)-5-methoxy-2-pyrazinecarboxamide]
- IC50 [1]: 883 nM
- IC50 ([2]; Homo sapiens, HEK293, Aβ40 in conditioned medium after 24 h incubation): > 10000 nM
- IC50 (Cathepsin D (Cat D)): > 400000 nM

Molecule: N-(3-((4aR,7aR)-3-amino-2,2-dimethyl-1,1-dioxido-7,7a-dihydro-2H-furo[3,4-b][1,4]thiazin-4a(5H)-yl)-4-fluorophenyl)-5-(difluoromethoxy)-3-methyl-2-pyridinecarboxamide,N-(3-((4aS,7aS)-3-amino-2,2-dimethyl-1,1-dioxido-7,7a-dihydro-2H-furo[3,4-b][1,4]thiazin-4a(5H)-yl)-4-fluorophenyl)-5-(difluoromethoxy)-3-methyl-2-pyridinecarboxamide [Example 413]
- IC50 ([1]; average IC50): 2.65 nM
- IC50 ([2]; average IC50): 10.3 nM
- IC50 (Cathepsin D (Cat D)): 111000 nM

Molecule: CC1(C)C(N)=N[C@](C)(c2cc(Nc3ccc4c(c3)OC(F)(F)O4)cnc2F)CS1(=O)=O [Example 414, (5R)-5-(5-((2,2-difluoro-1,3-benzodioxo1-5-yl)amino)-2-fluoro-3-pyridinyl)-2,2,5-trimethyl-5,6-dihydro-2H-1,4-thiazin-3-amine 1,1-dioxide]
- IC50 ([2]; average IC50): 2530 nM

Molecule: Cc1ccc(Oc2ccc(F)c([C@]3(C)CS(=O)(=O)C(C)(C)C(N)=N3)c2)nc1 [Example 265, (5R)-5-(2-fluoro-5-((5-methyl-2-pyridinyl)oxy)phenyl)-2,2,5-3-amine 1,1-dioxide trimethyl-5,6-dihydro-2H-1,4-thiazin-3-amine 1,1-dioxide]
- IC50 ([2]; average IC50): 804 nM

More lines, now with the values ahead:

- IC50 ([1]; average IC50, enzyme assay): 3.2 nM
- IC50 [2, 3]: 10.4 nM
- IC50 (Cathepsin D (Cat D); Cathepsin D FRET assay): 60100 nM
Molecule: Cc1c(C(=O)Nc2ccc(F)c([C@@]3(C)N=C(N)C4(CC4)S(=O)(=O)[C@H]3F)c2)nc2ccc(Cl)cn12 [Example 462, N-(3-((5R,6R)-8-amino-5-fluoro-6-methyl-4,4-dioxido-4-thia-7-azaspiro[2.5]oct-7-en-6-yl)-4-fluorophenyl)-6-chloro-3-methylimidazo[1,2-a]pyridine-2-carboxamide]

- IC50 ([1]; average IC50): 10000 nM
- IC50 ([2]; Homo sapiens, HEK293, average IC50): 4360 nM
- IC50 (Cathepsin D (Cat D)): > 400000 nM
Molecule: COc1cnc(C(=O)Nc2cc([C@@]3(C)CS(=O)(=O)C(C)(C)C(N)=N3)c(F)cn2)cn1 [Example 142, (S)—N-(4-(5-amino-3,6,6-trimethyl-1,1-dioxido-3,6-dihydro-2H-1,4-thiazin-3-yl)-5-fluoropyridin-2-yl)-5-methoxypyrazine-2-carboxamide]

- IC50 ([1]; average IC50): 1.31 nM
- IC50 ([2]; average IC50): 77.9 nM
- IC50 (Cathepsin D (Cat D)): 363000 nM
Molecule: N-(3-((7R)-9-amino-7-(fluoromethyl)-5,5-dioxido-5-thia-8-azaspiro[3.5]non-8-en-7-yl)-4-fluorophenyl)-3-chloro-1,7-naphthyridin-8-amine,N-(3-((7S)-9-amino-7-(fluoromethyl)-5,5-dioxido-5-thia-8-azaspiro[3.5]non-8-en-7-yl)-4-fluorophenyl)-3-chloro-1,7-naphthyridin-8-amine [Example 243]

- IC50 ([1]; average IC50, enzyme assay): 9.71 nM
- IC50 ([2]; average IC50, cell assay): 37.3 nM
- IC50 (Cathepsin D (Cat D)): 309000 nM
Molecule: N-(3-((4aR,7aS)-3-amino-2,2-dimethyl-1,1-dioxido-7,7a-dihydro-2H-furo[3,4-b][1,4]thiazin-4a(5H)-yl)-4-fluorophenyl)-5-methoxy-3-methyl-2-pyridinecarboxamide,N-(3-((4aS,7aR)-3-amino-2,2-dimethyl-1,1-dioxido-7,7a-dihydro-2H-furo[3,4-13][1,4]thiazin-4a(5H)-yl)-4-fluorophenyl)-5-methoxy-3-methyl-2-pyridinecarboxamide [Example 428]

- IC50 ([1]; average IC50, enzyme assay): 1.5 nM
- IC50 ([2]; average IC50, cell assay): 13.6 nM
- IC50 (Cathepsin D (Cat D)): 170000 nM
Molecule: N-(3-((4aR,7aS)-3-amino-2,2-dimethyl-1,1-dioxido-7,7a-dihydro-2H-furo[3,4-b][1,4]thiazin-4a(5H)-yl)-4-fluorophenyl)-5-chloro-2-pyridinecarboxamide,N-(3-((4aS,7aR)-3-amino-2,2-dimethyl-1,1-dioxido-7,7a-dihydro-2H-furo[3,4-b][1,4]thiazin-4a(5H)-yl)-4-fluorophenyl)-5-chloro-2-pyridinecarboxamide [Example 426]

- IC50 ([1]; average IC50, enzyme assay): 1 nM
- IC50 ([2]; average IC50, cell assay): 33 nM
- IC50 (Cathepsin D (Cat D)): 220000 nM
Molecule: N-(3-((4aR,7aS)-3-amino-2,2-dimethyl-1,1-dioxido-7,7a-dihydro-2H-furo[3,4-b][1,4]thiazin-4a(5H)-yl)-4-fluorophenyl)-5-chloro-3-methyl-2-pyridinecarboxamide,N-(3-((4aS,7aR)-3-amino-2,2-dimethyl-1,1-dioxido-7,7a-dihydro-2H-furo[3,4-13][1,4]thiazin-4a(5H)-yl)-4-fluorophenyl)-5-chloro-3-methyl-2-pyridinecarboxamide [Example 427]

- IC50 [1, 4]: 115 nM
- IC50 ([2]; Homo sapiens, HEK293, average IC50, cell assay (Table II)): 462 nM
- IC50 (Cathepsin D (Cat D); Table II): 221000 nM
Molecule: COc1cnc(C(=O)Nc2cc([C@]3(C)CS(=O)(=O)C(C)(C)C(N)=N3)c(F)cn2)cn1 [Example 143, (R)—N-(4-(5-amino-3,6,6-trimethyl-1,1-dioxido-3,6-dihydro-2H-1,4-thiazin-3-yl)-5-fluoropyridin-2-yl)-5-methoxypyrazine-2-carboxamide]

- IC50 ([2]; average IC50, cell assay): 28.5 nM
Molecule: CC1(C)C(N)=N[C@](CF)(c2cc(Nc3nccc4cc(Cl)cnc34)ccc2F)CS1(=O)=O [Example 448, N-(3-((3S)-5-amino-3-(fluoromethyl)-6,6-dimethyl-1,1-dioxido-3,6-dihydro-2H-1,4-thiazn-3-yl)-4-fluorophenyl)-3-chloro-1,7-naphthyridin-8-amine]
